Key:
Assay in all cases: relative viability (nuclei count vs DMSO), 5 days (fraction); higher = more cells survive
[1] = compound: Cn1c(=O)n(-c2ccc(C(C)(C)C#N)cc2)c2c3cc(-c4cnc5ccccc5c4)ccc3ncc21 [Dactolisib] + COc1cccc2cc(-c3nc([C@H]4CC[C@H](C(=O)O)CC4)n4ncnc(N)c34)[nH]c12 [OSI-027] (partner 0.5 µM)
In short: (§1)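 Relative viability equals treated-well nuclei counts divided by vehicle-well nuclei counts. Counts came from 4× images of lung cancer cell lines grown in 1536-well plates for 5 days after pin-tool dosing on the day after seeding. Dosing used one drug alone or a fixed anchor-drug dose plus five library-drug doses (not always all listed) in √10 steps, and values are medians of duplicate plates.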

[2] = compound: C1CCC(CC1)N(CCNCCC2=C3C(=C(C=C2)O)NC(=O)CO3)C(=O)CCNCCC4=CC(=C(C=C4)Cl)Cl [AZ505] + C[C@]1(O)C[C@@H](c2nc(-c3ccc4ccc(-c5ccccc5)nc4c3)c3c(N)nccn32)C1 [Linsitinib] (partner 1 µM)
In short: as §1

[3] = compound: Cn1c(=O)n(-c2ccc(C(C)(C)C#N)cc2)c2c3cc(-c4cnc5ccccc5c4)ccc3ncc21 [Dactolisib] + COc1cc2c(Oc3ccc(NC(=O)C4(C(=O)Nc5ccc(F)cc5)CC4)cc3F)ccnc2cc1OCCCN1CCOCC1 [Foretinib] (partner 0.25 µM)
In short: as §1

[4] = compound: Cn1c(=O)n(-c2ccc(C(C)(C)C#N)cc2)c2c3cc(-c4cnc5ccccc5c4)ccc3ncc21 [Dactolisib] + CC(C)C[C@H](NC(=O)[C@H](Cc1ccccc1)NC(=O)c1cnccn1)B(O)O [Bortezomib] (partner 0.002 µM)
In short: as §1

UMC-11
relative viability ([1]; first compound 0.002 µM): 0.432
relative viability ([1]; first compound 0.006325 µM): 0.537
relative viability ([1]; first compound 0.02 µM): 0.394
relative viability ([1]; first compound 0.06325 µM): 0.283
relative viability ([1]; first compound 0.2 µM): 0.248
relative viability ([2]; first compound 0.08 µM): 0.971
relative viability ([2]; first compound 0.253 µM): 1.06
relative viability ([2]; first compound 0.8 µM): 1.01
relative viability ([2]; first compound 2.53 µM): 0.951
relative viability ([2]; first compound 8 µM): 1.05
relative viability ([3]; first compound 0.002 µM): 1.04
relative viability ([3]; first compound 0.006325 µM): 0.882
relative viability ([3]; first compound 0.02 µM): 0.671
relative viability ([3]; first compound 0.06325 µM): 0.273
relative viability ([3]; first compound 0.2 µM): 0.242
relative viability ([4]; first compound 0.002 µM): 0.732
relative viability ([4]; first compound 0.006325 µM): 0.649
relative viability ([4]; first compound 0.02 µM): 0.57
relative viability ([4]; first compound 0.06325 µM): 0.261
relative viability ([4]; first compound 0.2 µM): 0.18
